Experimental data published in patent US20250032631A1, “ANTI-SEZ6 ANTIBODY DRUG CONJUGATES” (AbbVie Inc., priority 2022, published 2025).

Key:
Type in all cases: cell-based
[1] = tested on: Calu-6 cells (lung adenocarcinoma); experiment: Cell proliferation (CellTiter-Glo luminescence), Calu-6; conditions: Homo sapiens, Calu-6, read-out: EC50, TOP1i compound potency, Calu-6
Protocol: The effect of TOP1i drugs on cell viability was assessed by monitoring ATP presence for metabolically active cells. Proliferation of Calu-6 cells (lung adenocarcinoma) and A375 cells (malignant melanoma) were quantified using CellTiter-Glo® luminescence.

[2] = tested on: SBC-5; experiment: SCLC cell viability assay (CellTiter-Glo), SBC-5; conditions: Homo sapiens, 72 h; SBC-5, 3 days; read-out: IC50, 50% cell growth inhibition
Protocol: (§1) SCLC cell lines NCI-H526 (“H526”), NCI-H524 (“H524”), NCI-H146 (“H146”), NCI-H1963 (“H1963”) and SW-1271 were obtained from the American Type Culture Collection (ATCC). COR-L95 cells were obtained from Millipore Sigma (#96020733). SBC-5 cells were obtained from the Japanese Collection of Research Bioresources Cell Bank (JCRB).
(§2) SCLC cell lines (shown in Table 2, column 1) were plated in white 384-well plates (Corning® 3765) at 1,000-2,000 cells/30 μl RPMI-1640 base media containing 10% heat-inactivated FBS (fetal bovine serum). Cell plates were incubated overnight at 37° C. in 5% CO2. Using a Tecan D300e Digital Dispenser, a dose response using a stock concentration of ADC or solution containing Example 1G and DMSO (dimethyl sulfoxide) was applied to the cells on day 0 and incubated for an additional 10 days (ADCs) or 3 days (Example 1G) at 37°° C. in 5% CO2. Samples were run in duplicate. Cell viability was assessed with the CellTiter-Glo™ Luminescent Cell Viability Assay (Promega, #G7570) according to the manufacturer's instructions, with the exception that the plates were shaken for 30 minutes prior to reading. Luminescence was read on the BioTek Synergy Neo2, and data was analyzed using GraphPad Prism software.

[3] = tested on: NCI-H1963; experiment: SCLC cell viability assay (CellTiter-Glo), NCI-H1963; conditions: Homo sapiens, 72 h; NCI-H1963, 3 days; read-out: IC50, 50% cell growth inhibition
Protocol: as §1, §2

[4] = tested on: NCI-H526; experiment: SCLC cell viability assay (CellTiter-Glo), NCI-H526; conditions: Homo sapiens, 72 h; NCI-H526, 3 days; read-out: IC50, 50% cell growth inhibition
Protocol: as §1, §2

[5] = tested on: SW-1271; experiment: SCLC cell viability assay (CellTiter-Glo), SW-1271; conditions: SW1271, 72 h; SW-1271, 3 days; read-out: IC50, 50% cell growth inhibition
Protocol: as §1, §2

[6] = tested on: A375 cells (malignant melanoma); experiment: Cell proliferation (CellTiter-Glo luminescence), A375; conditions: Homo sapiens, A-375, read-out: EC50, TOP1i compound potency, A375
Description: Proliferation of Calu-6 cells (lung adenocarcinoma) and A375 cells (malignant melanoma) were quantified using CellTiter-Glo® luminescence.

[7] = tested on: COR-L95; experiment: SCLC cell viability assay (CellTiter-Glo), COR-L95; conditions: 72 h; COR-L95, 3 days; read-out: IC50, 50% cell growth inhibition
Protocol: as §1, §2

[8] = tested on: NCI-H146; experiment: SCLC cell viability assay (CellTiter-Glo), NCI-H146; conditions: Homo sapiens, 72 h; NCI-H146, 3 days; read-out: IC50, 50% cell growth inhibition
Protocol: as §1, §2

[9] = tested on: SCLC cell lines; experiment: SCLC cell viability assay, summary over the cell line panel; conditions: all SCLC cell lines tested, TOP1 inhibitor alone
Protocol: as §1
as §2, with “software. […]” for “software.”

[10] = tested on: NCI-H524; experiment: SCLC cell viability assay (CellTiter-Glo), NCI-H524; conditions: Homo sapiens, 72 h; NCI-H524, 3 days; read-out: IC50, 50% cell growth inhibition
Protocol: as §1, §2

SMILES: CC[C@@]1(O)C(=O)OCc2c1cc1n(c2=O)Cc2c-1nc1cc3c(cc1c2C12CC(N)(C1)C2)OCO3 [Example 1G, (7S)-14-(3-aminobicyclo[1.1.1]pentan-1-yl)-7-ethyl-7-hydroxy-2H,10H-[1,3]dioxolo[4,5-g]pyrano[3′,4′:6,7]indolizino[1,2-b]quinoline-8,11(7H,13H)-dione]
- EC50 [1]: 0.57 nM
- IC50 [2]: 1.26 nM
- IC50 [3]: 6.28 nM
- IC50 [4]: 0.2 nM
- IC50 [5]: 2.49 nM
- EC50 [6]: 0.5 nM
- IC50 [7]: 5.71 nM
- IC50 [8]: 21.6 nM
- IC50 in all cell lines [9]: sub-to low-nM
- IC50 [10]: 1.68 nM
